Each structure is given as a SMILES string.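 Assay format: 96-well plates, 48-hour exposure. Here, GI50 denotes the concentration required for 50% inhibition of growth. Definition used: TGI = concentration required for complete inhibition of growth.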

Some test systems named below: HS 578T breast; HL-60(TB) leukemia; NCI/ADR-RES ovarian; BT-549 breast; OVCAR-4 ovarian; HCT-15 colon; OVCAR-8 ovarian; RXF 393 renal; HOP-92 NSCLC; A549 NSCLC.
Common to all, as to assay: inhibition of tumour cell growth, NCI panel, 48 h

Consider `CCn1c(SCC(=O)Nc2cc(C(F)(F)F)ccc2Cl)nc2ccccc2c1=O`, for which the GI50 with HS 578T breast is 13 µM; in the experiment with HL-60(TB) leukemia, over 100 µM; with NCI/ADR-RES ovarian, 32.8 µM; in the experiment with BT-549 breast, 35 µM; in the experiment with OVCAR-4 ovarian it was 22.5 µM; in the experiment with HCT-15 colon, 8.46 µM. Besides, the GI50 in the experiment on OVCAR-8 ovarian was 32.2 µM; with RXF 393 renal, 15.6 µM; with HOP-92 NSCLC, 12.1 µM. In addition, the TGI was 48.7 µM in the experiment with HS 578T breast; over 100 µM in the experiment with HL-60(TB) leukemia; over 100 µM in the experiment on NCI/ADR-RES ovarian; over 100 µM in the experiment on BT-549 breast; over 100 µM in the experiment on OVCAR-4 ovarian; over 100 µM in the experiment on HCT-15 colon. Moreover, the TGI in the experiment with OVCAR-8 ovarian was over 100 µM; with RXF 393 renal it was 66.9 µM; in the experiment on HOP-92 NSCLC, 41.4 µM.

Turning to `C=CCOc1ccc(N)c([N+](=O)[O-])c1`, the TGI with HS 578T breast, with HL-60(TB) leukemia, with A549 NSCLC, in the experiment with NCI/ADR-RES ovarian, in the experiment on BT-549 breast and with HCT-15 colon was over 100 µM throughout. Further, the TGI in the experiment on OVCAR-8 ovarian and with RXF 393 renal was over 100 µM each time.

Consider `O=C1c2cc3c(cc2-c2c1c1ccc(F)cc1c(=O)n2C[C@H](O)[C@H](O)[C@H](O)CO)OCO3`, for which the GI50 was 0.506 µM in the experiment on HS 578T breast; 0.148 µM in the experiment with HL-60(TB) leukemia; 0.207 µM in the experiment on NCI/ADR-RES ovarian; 0.149 µM with BT-549 breast; 0.28 µM in the experiment on OVCAR-4 ovarian; 0.199 µM with HCT-15 colon. Also, the GI50 was 0.203 µM in the experiment on OVCAR-8 ovarian, 0.193 µM with RXF 393 renal and 0.243 µM in the experiment with HOP-92 NSCLC. The TGI was 9.62 µM in the experiment with HS 578T breast; 0.749 µM with HL-60(TB) leukemia; 2.14 µM with NCI/ADR-RES ovarian; 1.05 µM in the experiment on BT-549 breast; 34.9 µM in the experiment with OVCAR-4 ovarian; 0.724 µM with HCT-15 colon. Besides, the TGI was 0.66 µM in the experiment with OVCAR-8 ovarian, 0.502 µM in the experiment on RXF 393 renal and 0.896 µM in the experiment on HOP-92 NSCLC.

With `CCN(CCO)CCCC(C)Nc1ccnc2cc(Cl)ccc12` (configuration not stated), the GI50 is over 100 µM in the experiment with HS 578T breast; 13.3 µM with HL-60(TB) leukemia; over 100 µM in the experiment with A549 NSCLC; over 100 µM with BT-549 breast; over 100 µM in the experiment on OVCAR-4 ovarian; over 100 µM with HCT-15 colon. The values for the GI50 with OVCAR-8 ovarian, with RXF 393 renal and in the experiment on HOP-92 NSCLC were over 100 µM, 73.8 µM and over 100 µM, respectively. Also, the TGI in the experiment on HS 578T breast was over 100 µM; in the experiment with HL-60(TB) leukemia it was 47.6 µM; in the experiment on A549 NSCLC it was over 100 µM; in the experiment with BT-549 breast it was over 100 µM; in the experiment on OVCAR-4 ovarian, over 100 µM; with HCT-15 colon it was over 100 µM. Moreover, the TGI with OVCAR-8 ovarian, with RXF 393 renal and in the experiment with HOP-92 NSCLC was over 100 µM each time.

For the compound `O=C(c1ccccc1)C1OC1C(=O)c1ccccc1` (configuration not stated), the GI50 with HS 578T breast was 3.01 µM; in the experiment with A549 NSCLC, 4.17 µM; with NCI/ADR-RES ovarian, 1.88 µM; in the experiment on BT-549 breast, 3.28 µM; in the experiment with OVCAR-4 ovarian it was 3.84 µM; in the experiment with HCT-15 colon, 2.61 µM. Moreover, the results for the GI50 in the experiment with OVCAR-8 ovarian, with RXF 393 renal and in the experiment on HOP-92 NSCLC were 4.02 µM, 2.37 µM and 1.96 µM, respectively. Also, the TGI in the experiment on HS 578T breast is over 100 µM; in the experiment on A549 NSCLC, 39.2 µM; with NCI/ADR-RES ovarian it was over 100 µM; in the experiment with BT-549 breast, 14.2 µM; in the experiment on OVCAR-4 ovarian it was 26.3 µM; in the experiment with HCT-15 colon, 12.2 µM. Also, the TGI with OVCAR-8 ovarian is over 100 µM; with RXF 393 renal it was 10.2 µM; in the experiment on HOP-92 NSCLC it was 6.09 µM.

For `O=C(Nc1ccccc1Cl)c1ccc(NC2=C(Cl)C(=O)N(C3CCCCC3)C2=O)cc1`, the GI50 in the experiment on HS 578T breast is 6.75 µM; in the experiment with HL-60(TB) leukemia it was 3.38 µM; with A549 NSCLC, 13.3 µM; in the experiment on NCI/ADR-RES ovarian, 29.3 µM; with BT-549 breast it was 20.7 µM; with OVCAR-4 ovarian, 25.1 µM. Moreover, the GI50 with HCT-15 colon is 6.79 µM; with OVCAR-8 ovarian, 2.99 µM; in the experiment with HOP-92 NSCLC, 17.4 µM. For the same compound, the TGI came to 133 µM in the experiment with HS 578T breast; 8.48 µM in the experiment on HL-60(TB) leukemia; 32.9 µM in the experiment with A549 NSCLC; 82.8 µM with NCI/ADR-RES ovarian; 47.1 µM with BT-549 breast; 74.9 µM with OVCAR-4 ovarian. Besides, the TGI with HCT-15 colon was 25.2 µM; in the experiment on OVCAR-8 ovarian it was 18.5 µM; with HOP-92 NSCLC, 42.2 µM.

Consider `COc1ccc(C2=NN(C(C)=O)C(c3ccc(Oc4ccnc5cc(Cl)ccc45)c(OC)c3)C2)cc1` (configuration not stated), for which the GI50 with HS 578T breast is 5.15 µM; with HL-60(TB) leukemia, over 100 µM; in the experiment on BT-549 breast, 4 µM; in the experiment on HCT-15 colon, over 100 µM; in the experiment on OVCAR-8 ovarian it was 3.63 µM; with RXF 393 renal, 5.04 µM. The GI50 with HOP-92 NSCLC is 3.03 µM. For the same compound, the TGI was over 100 µM with HS 578T breast; over 100 µM with HL-60(TB) leukemia; over 100 µM in the experiment with BT-549 breast; over 100 µM in the experiment with HCT-15 colon; over 100 µM with OVCAR-8 ovarian; 41 µM in the experiment with RXF 393 renal. This compound displayed a TGI in the experiment on HOP-92 NSCLC of 15.4 µM.

For the compound `CCN(CC)CCCNc1n[n+]([O-])c2ccccc2[n+]1[O-]`, the TGI in the experiment with HL-60(TB) leukemia was 19.7 µM; in the experiment on A549 NSCLC it was 39.7 µM; in the experiment on NCI/ADR-RES ovarian, over 100 µM; with BT-549 breast, over 100 µM; in the experiment on OVCAR-4 ovarian it was over 100 µM; with HCT-15 colon, 31.5 µM. For the same compound, the TGI is 29.3 µM with OVCAR-8 ovarian, 76.2 µM with RXF 393 renal and over 100 µM in the experiment on HOP-92 NSCLC.

In the case of `O=C(CCCC(=O)N/N=C/c1cc(Cl)ccc1O)N/N=C\c1cc(Cl)ccc1O`, the GI50 was over 100 µM in the experiment with HS 578T breast; 2.48 µM in the experiment with HL-60(TB) leukemia; 3.69 µM in the experiment with A549 NSCLC; 3.44 µM in the experiment with NCI/ADR-RES ovarian; 7.34 µM in the experiment on BT-549 breast; 1.25 µM in the experiment with OVCAR-4 ovarian. Also, the GI50 is 0.574 µM in the experiment with HCT-15 colon and 2.86 µM with OVCAR-8 ovarian. In addition, the TGI was over 100 µM in the experiment on HS 578T breast; 8.28 µM with HL-60(TB) leukemia; over 100 µM in the experiment on A549 NSCLC; over 100 µM with NCI/ADR-RES ovarian; over 100 µM with BT-549 breast; over 100 µM in the experiment on OVCAR-4 ovarian. Further, the TGI with HCT-15 colon and with OVCAR-8 ovarian was over 100 µM throughout.

The record behind these values is PubChem BioAssay (NCI).
